Marks after values point to notes of the source that are not given here.
Columns and labels:
Assay type in all cases: in vivo
Septoria tritici = assay: Test D: wheat leaf blotch, preventive spray on wheat seedlings, disease rating
Text: The test compounds were first dissolved in acetone in an amount equal to 3% of the final volume and then suspended at the desired concentration (in ppm) in acetone and purified water (50/50 mix) containing 250 ppm of the surfactant Trem® 014 (polyhydric alcohol esters). The resulting test suspensions were then used in Tests A-L. Spraying a 200 ppm test suspension to the point of run-off on the test plants was the equivalent of an application rate of 500 g/ha. The test suspension was sprayed to the point of run-off on wheat seedlings. The following day the seedlings were inoculated with a spore suspension of Septoria tritici (the causal agent of wheat leaf blotch) and incubated in a saturated atmosphere at 24° C. for 48 h, and then moved to a growth chamber at 20° C. for 19 days, after which time disease ratings were made. […] A dash (-) indicates no test results. All results are for 200 ppm except where followed by an “*”, which indicates 40 ppm or “**”, which indicates 50 ppm.

[1] = tested on: Puccinia recondita f. sp. tritici; assay: Test B: wheat leaf rust, preventive spray on wheat seedlings, disease rating
Text: (§1) The test compounds were first dissolved in acetone in an amount equal to 3% of the final volume and then suspended at the desired concentration (in ppm) in acetone and purified water (50/50 mix) containing 250 ppm of the surfactant Trem® 014 (polyhydric alcohol esters). The resulting test suspensions were then used in Tests A-L. Spraying a 200 ppm test suspension to the point of run-off on the test plants was the equivalent of an application rate of 500 g/ha. The test suspension was sprayed to the point of run-off on wheat seedlings. […] A dash (-) indicates no test results. All results are for 200 ppm except where followed by an “*”, which indicates 40 ppm or “**”, which indicates 50 ppm.

[2] = tested on: Erysiphe graminis f. sp. tritici; assay: Test A: wheat powdery mildew, preventive spray on wheat seedlings, disease rating
Text: as §1

Botrytis cinerea = assay: Test F: tomato Botrytis, preventive spray on tomato seedlings, disease rating
Text: (§2) The test compounds were first dissolved in acetone in an amount equal to 3% of the final volume and then suspended at the desired concentration (in ppm) in acetone and purified water (50/50 mix) containing 250 ppm of the surfactant Trem® 014 (polyhydric alcohol esters). The resulting test suspensions were then used in Tests A-L. Spraying a 200 ppm test suspension to the point of run-off on the test plants was the equivalent of an application rate of 500 g/ha. The test suspension was sprayed to the point of run-off on tomato seedlings. […] A dash (-) indicates no test results. All results are for 200 ppm except where followed by an “*”, which indicates 40 ppm or “**”, which indicates 50 ppm.

Septoria nodorum = assay: Test C: wheat glume blotch, preventive spray on wheat seedlings, disease rating
Text: as §1

Alternaria solani = assay: Test H: tomato early blight, preventive spray on tomato seedlings, disease rating
Text: as §2

[3] = 200 ppm, 100 = 100% disease control, 0 = no control relative to controls
[4] = 40 ppm (*), 100 = 100% disease control, 0 = no control relative to controls

Row | Compound | Percentage Disease Control, Test D (Septoria tritici; 40 ppm (*)) | Percentage Disease Control, Test B ([1]; 40 ppm (*)) | Percentage Disease Control, Test A ([2]; 40 ppm (*)) | Percentage Disease Control, Test F (Botrytis cinerea; 40 ppm (*)) | Percentage Disease Control, Test C (Septoria nodorum; 40 ppm (*)) | Percentage Disease Control, Test H (Alternaria solani; 40 ppm (*)) | Percentage Disease Control, Test F (Botrytis cinerea; 200 ppm) | Percentage Disease Control, Test H (Alternaria solani; 200 ppm) | also measured
1 | COC(=O)NCc1cc(-c2ccn(Cc3cccc(OC(F)(F)F)c3)n2)ccc1Cl [Cmpd 65] | 100* % | 99* % | 99* % | 0* % | 99* % | 8* % |  |  | 
2 | COC(=O)NCc1cc(-c2ccnc(C(F)(F)F)n2)ccc1Cl [Cmpd 138] |  |  |  |  |  |  |  |  | Percentage Disease Control, Test D (Septoria tritici; [3]): 77%; Percentage Disease Control, Test B [1, 3]: 48%; Percentage Disease Control, Test A [2, 3]: 56%; Percentage Disease Control, Test F (Botrytis cinerea; [3]): 0%; Percentage Disease Control, Test C (Septoria nodorum; [3]): 92%; Percentage Disease Control, Test H (Alternaria solani; [3]): 0%
3 | COC(=O)NCc1cc(-c2cc(C(F)(F)F)n(CCC(C)(C)C)n2)ccc1Cl [Cmpd 101] | 95* % | 99* % | 98* % |  | 100* % |  | 0% | 0% | 
4 | CCSc1nsc(-n2ccc(-c3ccc(Cl)c(CNC(=O)OC)c3)n2)n1 [Cmpd 93] | 96* % | 98* % | 93* % |  | 100* % |  | 0% | 15% | 
5 | CCCn1nc(C(F)(F)F)cc1-c1ccc(Cl)c(CNC(=O)OC)c1 [Cmpd 144] |  |  |  |  |  |  |  |  | Percentage Disease Control, Test D (Septoria tritici; [3]): 95%; Percentage Disease Control, Test B [1, 3]: 19%; Percentage Disease Control, Test A [2, 3]: 97%; Percentage Disease Control, Test F (Botrytis cinerea; [3]): 0%; Percentage Disease Control, Test C (Septoria nodorum; [3]): 0%; Percentage Disease Control, Test H (Alternaria solani; [3]): 0%
6 | COC(=O)NCc1cc(-c2ccn(CCC(=O)c3ccc(Cl)cc3)n2)ccc1Cl [Cmpd 56] | 90* % | 97* % | 89* % | 0* % | 97* % | 92* % |  |  | 
7 | COC(=O)NCc1cc(-c2ccn(Cc3ccc(C)cc3)n2)ccc1Cl [Cmpd 72] | 100* % | 99* % | 99* % | 97* % | 100* % | 94* % |  |  | 
8 | COC(=O)NCc1cc(-c2ccn(-c3cccc(Cl)c3)n2)ccc1Cl [Cmpd 80] | 100* % | 98* % | 98* % | 60* % | 100* % | 29* % |  |  | 
9 | COC(=O)NCc1cc(-c2ccnc(OCc3ccccc3)n2)ccc1Cl [Cmpd 139] |  |  |  |  |  |  |  |  | Percentage Disease Control, Test D (Septoria tritici; [4]): 92* %; Percentage Disease Control, Test B [1, 4]: 100* %; Percentage Disease Control, Test A [2, 3]: 87%; Percentage Disease Control, Test F (Botrytis cinerea; [3]): 0%; Percentage Disease Control, Test C (Septoria nodorum; [4]): 99* %; Percentage Disease Control, Test H (Alternaria solani; [3]): 26%
10 | COC(=O)NCc1cc(-c2ccn(-c3ccc(Cl)c(Cl)c3)n2)ccc1Cl [Cmpd 117] |  |  |  |  |  |  | 94% | 95% | Percentage Disease Control, Test D (Septoria tritici; 200 ppm): 100%; Percentage Disease Control, Test B ([1]; 200 ppm): 99%; Percentage Disease Control, Test A ([2]; 200 ppm): 98%; Percentage Disease Control, Test C (Septoria nodorum; 200 ppm): 100%
11 | COC(=O)NCc1cc(-c2ccn(-c3ccc(F)cc3)n2)ccc1Cl [Cmpd 116] |  |  |  |  |  |  | 0% | 99% | Percentage Disease Control, Test D (Septoria tritici; 200 ppm): 96%; Percentage Disease Control, Test B ([1]; 200 ppm): 100%; Percentage Disease Control, Test A ([2]; 200 ppm): 99%; Percentage Disease Control, Test C (Septoria nodorum; 200 ppm): 100%
12 | COC(=O)NCc1cc(-c2ccn(-c3ccc(C(=O)OC)cc3)n2)ccc1Cl [Cmpd 108] | 98* % |  |  |  |  |  | 0% | 28% | Percentage Disease Control, Test B ([1]; 200 ppm): 86%; Percentage Disease Control, Test A ([2]; 200 ppm): 0%; Percentage Disease Control, Test C (Septoria nodorum; 200 ppm): 95%
13 | COC(=O)NCc1cc(-n2ccc(-c3cccc(C(F)(F)F)c3)n2)ccc1Cl [Cmpd 119] | 100* % | 100* % | 100* % |  | 100* % |  | 51% | 57% | 
14 | COC(=O)NCc1cc(-c2ccnc(-c3csc(C)n3)n2)ccc1Cl [Cmpd 131] |  |  |  |  |  |  |  |  | Percentage Disease Control, Test D (Septoria tritici; [3]): 13%; Percentage Disease Control, Test B [1, 3]: 0%; Percentage Disease Control, Test A [2, 3]: 0%; Percentage Disease Control, Test F (Botrytis cinerea; [3]): 0%; Percentage Disease Control, Test C (Septoria nodorum; [3]): 0%; Percentage Disease Control, Test H (Alternaria solani; [3]): 0%
15 | CNC(=O)C(=NOC)c1cc(-c2ccn(-c3cccc(C(F)(F)F)c3)n2)ccc1C [Cmpd 85] | 99* % | 97* % | 100* % |  | 99* % |  | 0% | 86% | 
16 | COC(=O)NCc1cc(-c2cc(C(F)(F)F)[nH]n2)ccc1Cl [Cmpd 100] |  |  |  |  |  |  | 0% | 0% | Percentage Disease Control, Test D (Septoria tritici; 200 ppm): 40%; Percentage Disease Control, Test B ([1]; 200 ppm): 0%; Percentage Disease Control, Test A ([2]; 200 ppm): 0%; Percentage Disease Control, Test C (Septoria nodorum; 200 ppm): 0%
17 | COC(=O)NCc1cc(-c2ccn(-c3ccccc3C(F)(F)F)n2)ccc1Cl [Cmpd 51] | 100* % | 99* % | 97* % | 0* % | 98* % | 60* % |  |  | 
18 | COC(=O)NCc1cc(-c2ccnc(Cl)n2)ccc1Cl [Cmpd 130] |  |  |  |  |  |  |  |  | Percentage Disease Control, Test D (Septoria tritici; [3]): 96%; Percentage Disease Control, Test B [1, 3]: 67%; Percentage Disease Control, Test A [2, 3]: 80%; Percentage Disease Control, Test F (Botrytis cinerea; [3]): 0%; Percentage Disease Control, Test C (Septoria nodorum; [3]): 92%; Percentage Disease Control, Test H (Alternaria solani; [3]): 0%
19 | COC(=O)NCc1cc(-c2c[nH]nn2)ccc1Cl [Cmpd 145] |  |  |  |  |  |  |  |  | Percentage Disease Control, Test D (Septoria tritici; [3]): 30%; Percentage Disease Control, Test B [1, 3]: 0%; Percentage Disease Control, Test A [2, 3]: 0%; Percentage Disease Control, Test F (Botrytis cinerea; [3]): 0%; Percentage Disease Control, Test C (Septoria nodorum; [3]): 0%; Percentage Disease Control, Test H (Alternaria solani; [3]): 15%
20 | COC(=O)NNc1cc(-c2ccn(-c3cccc(C(F)(F)F)c3)n2)ccc1Cl [Cmpd 64] | 93* % | 100* % | 99* % |  |  |  | 16% | 62% | Percentage Disease Control, Test C (Septoria nodorum; 200 ppm): 99%
21 | COC(=O)NCc1cc(-c2ccnn2-c2ccccc2)ccc1Cl [Cmpd 140] |  |  |  |  |  |  |  |  | Percentage Disease Control, Test D (Septoria tritici; [3]): 96%; Percentage Disease Control, Test B [1, 3]: 32%; Percentage Disease Control, Test A [2, 3]: 0%; Percentage Disease Control, Test F (Botrytis cinerea; [3]): 0%; Percentage Disease Control, Test C (Septoria nodorum; [3]): 0%; Percentage Disease Control, Test H (Alternaria solani; [3]): 0%
22 | COC(=O)NCc1cc(-c2ccn(Cc3ccc(Cl)cc3)n2)ccc1Cl [Cmpd 67] | 100* % | 99* % | 96* % | 0* % | 99* % | 96* % |  |  | 
23 | COC(=O)NCc1cc(-c2ccn(Cc3ccccc3OC(F)(F)F)n2)ccc1Cl [Cmpd 76] | 100* % | 100* % | 99* % | 0* % | 99* % | 0* % |  |  | 
24 | COC(=O)NCc1cc(-c2ccn(-c3cccc(Br)c3)n2)ccc1Cl [Cmpd 112] | 100* % | 99* % |  |  | 100* % |  | 0% | 93% | Percentage Disease Control, Test A ([2]; 200 ppm): 88%
25 | COC(=O)NCc1cc(-c2ccn(-c3cc(C(F)(F)F)ccn3)n2)ccc1Cl [Cmpd 86] | 98* % | 100* % | 99* % | 0* % | 100* % | 9* % |  |  | 

From US9198433B2, “Substituted benzene fungicides” (E I DU PONT DE NEMOURS AND COMPANY, priority 2007, dated 2015)
